In patent US8765727B2, “Macrocyclic compounds and their use as kinase inhibitors” (Incyte Corporation, priority 2009, dated 2014):
Structures can show the parent of a compound that is named as a salt. Where two headings read alike, the source gives them in different places.

Experiments:
Format in all cases: biochemical
[1] = biological target: human JAK1 (a.a. 837-1142) catalytic domain (Homo sapiens, UniProt P23458); experiment: In vitro JAK kinase assay (HTRF), JAK1; conditions: 90 μM ATP, 500 nM peptide, room temperature 1 hr
Method: (§1) One or more compounds herein were tested for inhibitory activity of JAK targets according to the following in vitro assay described in Park et al., Analytical Biochemistry 1999, 269, 94-104. The catalytic domains of human JAK1 (a.a. 837-1142), JAK2 (a.a. 828-1132) and JAK3 (a.a. 781-1124) with an N-terminal His tag were expressed using baculovirus in insect cells and purified. The catalytic activity of JAK1, JAK2 or JAK3 was assayed by measuring the phosphorylation of a biotinylated peptide. The phosphorylated peptide was detected by homogenous time resolved fluorescence (HTRF). […] The ATP concentration in the reactions was 90 μM for JAK1, 30 μM for JAK2 and 3 μM for JAK3. Reactions were carried out at room temperature for 1 hr and then stopped with 20 μL 45 mM EDTA, 300 nM SA-APC, 6 nM Eu-Py20 in assay buffer (Perkin Elmer, Boston, Mass.). Binding to the Europium labeled antibody took place for 40 minutes and HTRF signal was measured on a Fusion plate reader (Perkin Elmer, Boston, Mass.).

[2] = biological target: human JAK2 (a.a. 828-1132) catalytic domain (Homo sapiens (Human), UniProt O60674); experiment: In vitro JAK kinase assay (HTRF), JAK2
Chain of human JAK2 (a.a. 828-1132) catalytic domain (O60674 828-1132): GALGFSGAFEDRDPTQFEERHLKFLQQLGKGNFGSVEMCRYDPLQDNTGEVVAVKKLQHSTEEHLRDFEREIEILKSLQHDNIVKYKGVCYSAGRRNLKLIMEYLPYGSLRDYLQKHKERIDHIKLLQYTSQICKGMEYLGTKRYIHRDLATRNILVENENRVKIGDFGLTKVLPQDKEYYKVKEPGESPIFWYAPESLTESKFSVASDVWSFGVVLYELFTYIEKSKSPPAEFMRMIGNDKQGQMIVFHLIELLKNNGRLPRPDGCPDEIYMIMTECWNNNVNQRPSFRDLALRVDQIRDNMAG
Method: One or more compounds herein were tested for inhibitory activity of JAK targets according to the following in vitro assay described in Park et al., Analytical Biochemistry 1999, 269, 94-104. The catalytic domains of human JAK1 (a.a. 837-1142), JAK2 (a.a. 828-1132) and JAK3 (a.a. 781-1124) with an N-terminal His tag were expressed using baculovirus in insect cells and purified. The catalytic activity of JAK1, JAK2 or JAK3 was assayed by measuring the phosphorylation of a biotinylated peptide. The phosphorylated peptide was detected by homogenous time resolved fluorescence (HTRF). […] Binding to the Europium labeled antibody took place for 40 minutes and HTRF signal was measured on a Fusion plate reader (Perkin Elmer, Boston, Mass.).

[3] = biological target: human JAK3 (a.a. 781-1124) catalytic domain (Homo sapiens (Human), UniProt P52333); experiment: In vitro JAK kinase assay (HTRF), JAK3; conditions: 3 μM ATP, 500 nM peptide, room temperature 1 hr
Chain of human JAK3 (a.a. 781-1124) catalytic domain (P52333 781-1124): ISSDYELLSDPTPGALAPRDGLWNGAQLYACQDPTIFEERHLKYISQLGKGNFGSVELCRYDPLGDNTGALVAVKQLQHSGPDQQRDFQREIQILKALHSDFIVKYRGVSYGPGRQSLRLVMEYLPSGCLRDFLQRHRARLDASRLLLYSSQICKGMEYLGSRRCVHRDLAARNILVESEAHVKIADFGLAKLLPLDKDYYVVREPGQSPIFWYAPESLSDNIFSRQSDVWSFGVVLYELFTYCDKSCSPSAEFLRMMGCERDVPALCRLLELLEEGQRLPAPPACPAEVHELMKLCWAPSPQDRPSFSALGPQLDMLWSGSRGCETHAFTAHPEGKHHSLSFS
Method: as §1

TYK2 = TYK2 (Homo sapiens (Human), UniProt P29597); experiment: TYK2 assay (as described by Thompson et al.)
Chain of TYK2 (P29597 whole entry, species assumed): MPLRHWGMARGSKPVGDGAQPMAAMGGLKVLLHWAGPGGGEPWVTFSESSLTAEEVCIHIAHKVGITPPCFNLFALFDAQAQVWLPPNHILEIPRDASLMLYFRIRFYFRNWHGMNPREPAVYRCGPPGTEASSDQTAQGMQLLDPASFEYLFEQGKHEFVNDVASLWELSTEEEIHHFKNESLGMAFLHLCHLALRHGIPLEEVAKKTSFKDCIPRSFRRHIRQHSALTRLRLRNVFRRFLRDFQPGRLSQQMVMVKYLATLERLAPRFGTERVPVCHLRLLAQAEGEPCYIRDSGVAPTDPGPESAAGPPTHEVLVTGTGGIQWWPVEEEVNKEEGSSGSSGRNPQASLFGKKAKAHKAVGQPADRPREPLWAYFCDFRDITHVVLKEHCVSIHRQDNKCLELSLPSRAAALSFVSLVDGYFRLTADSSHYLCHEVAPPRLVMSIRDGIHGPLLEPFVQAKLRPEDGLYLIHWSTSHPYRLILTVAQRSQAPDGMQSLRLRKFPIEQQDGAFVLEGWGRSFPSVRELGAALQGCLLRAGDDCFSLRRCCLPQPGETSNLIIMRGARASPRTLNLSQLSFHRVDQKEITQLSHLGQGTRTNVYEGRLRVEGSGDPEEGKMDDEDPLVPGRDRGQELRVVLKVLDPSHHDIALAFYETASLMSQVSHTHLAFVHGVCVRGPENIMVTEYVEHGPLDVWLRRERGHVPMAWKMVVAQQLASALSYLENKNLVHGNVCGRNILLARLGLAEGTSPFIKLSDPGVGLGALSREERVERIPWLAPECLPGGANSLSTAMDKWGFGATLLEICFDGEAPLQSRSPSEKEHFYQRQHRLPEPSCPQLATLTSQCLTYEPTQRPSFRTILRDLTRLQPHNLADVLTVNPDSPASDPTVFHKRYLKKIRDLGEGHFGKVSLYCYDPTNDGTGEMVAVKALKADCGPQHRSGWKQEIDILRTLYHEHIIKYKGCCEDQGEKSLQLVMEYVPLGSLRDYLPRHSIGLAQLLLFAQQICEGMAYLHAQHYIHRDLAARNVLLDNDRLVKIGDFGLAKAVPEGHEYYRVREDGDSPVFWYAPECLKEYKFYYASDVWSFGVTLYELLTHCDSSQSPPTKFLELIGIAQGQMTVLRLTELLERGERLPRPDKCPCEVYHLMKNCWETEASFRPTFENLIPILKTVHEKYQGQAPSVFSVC
Description: The invention will be described in greater detail by way of specific examples. The following examples are offered for illustrative purposes, and are not intended to limit the invention in any manner. Those of skill in the art will readily recognize a variety of non-critical parameters which can be changed or modified to yield essentially the same results. In some instances where the compounds of the examples were isolated by preparative HPLC in the presence of trifluoroacetic acid (TFA) or other acid, the compound may have been obtained as the corresponding salt. […] Certain compounds described in Tables 1 and in the Example section were tested for inhibitory activity of JAK/ALK targets according to assays such as those described herein or those known in the art [e.g., ALK assays described in WO 04/079326; and TYK2 assays described by James E. Thompson et. al, “Photochemical preparation of a pyridone containing tetracycle: A JAK protein kinase inhibitor,” Bioorganic & Medicinal Chemistry Letters, Volume 12, Issue 8, 22 Apr. 2002, Pages 1219-1223]. […] Some exemplary data of the compounds of the invention are shown in Table 1 in the experimental section.

[4] = biological target: Recombinant Human Anaplastic Lymphoma Kinase (Homo sapiens (Human), UniProt Q9UM73); experiment: ALK HTRF kinase assay; conditions: 90 μM ATP, 0.25 nM enzyme, 2 hours at 25° C.
Chain of Recombinant Human Anaplastic Lymphoma Kinase (Q9UM73 19-1620): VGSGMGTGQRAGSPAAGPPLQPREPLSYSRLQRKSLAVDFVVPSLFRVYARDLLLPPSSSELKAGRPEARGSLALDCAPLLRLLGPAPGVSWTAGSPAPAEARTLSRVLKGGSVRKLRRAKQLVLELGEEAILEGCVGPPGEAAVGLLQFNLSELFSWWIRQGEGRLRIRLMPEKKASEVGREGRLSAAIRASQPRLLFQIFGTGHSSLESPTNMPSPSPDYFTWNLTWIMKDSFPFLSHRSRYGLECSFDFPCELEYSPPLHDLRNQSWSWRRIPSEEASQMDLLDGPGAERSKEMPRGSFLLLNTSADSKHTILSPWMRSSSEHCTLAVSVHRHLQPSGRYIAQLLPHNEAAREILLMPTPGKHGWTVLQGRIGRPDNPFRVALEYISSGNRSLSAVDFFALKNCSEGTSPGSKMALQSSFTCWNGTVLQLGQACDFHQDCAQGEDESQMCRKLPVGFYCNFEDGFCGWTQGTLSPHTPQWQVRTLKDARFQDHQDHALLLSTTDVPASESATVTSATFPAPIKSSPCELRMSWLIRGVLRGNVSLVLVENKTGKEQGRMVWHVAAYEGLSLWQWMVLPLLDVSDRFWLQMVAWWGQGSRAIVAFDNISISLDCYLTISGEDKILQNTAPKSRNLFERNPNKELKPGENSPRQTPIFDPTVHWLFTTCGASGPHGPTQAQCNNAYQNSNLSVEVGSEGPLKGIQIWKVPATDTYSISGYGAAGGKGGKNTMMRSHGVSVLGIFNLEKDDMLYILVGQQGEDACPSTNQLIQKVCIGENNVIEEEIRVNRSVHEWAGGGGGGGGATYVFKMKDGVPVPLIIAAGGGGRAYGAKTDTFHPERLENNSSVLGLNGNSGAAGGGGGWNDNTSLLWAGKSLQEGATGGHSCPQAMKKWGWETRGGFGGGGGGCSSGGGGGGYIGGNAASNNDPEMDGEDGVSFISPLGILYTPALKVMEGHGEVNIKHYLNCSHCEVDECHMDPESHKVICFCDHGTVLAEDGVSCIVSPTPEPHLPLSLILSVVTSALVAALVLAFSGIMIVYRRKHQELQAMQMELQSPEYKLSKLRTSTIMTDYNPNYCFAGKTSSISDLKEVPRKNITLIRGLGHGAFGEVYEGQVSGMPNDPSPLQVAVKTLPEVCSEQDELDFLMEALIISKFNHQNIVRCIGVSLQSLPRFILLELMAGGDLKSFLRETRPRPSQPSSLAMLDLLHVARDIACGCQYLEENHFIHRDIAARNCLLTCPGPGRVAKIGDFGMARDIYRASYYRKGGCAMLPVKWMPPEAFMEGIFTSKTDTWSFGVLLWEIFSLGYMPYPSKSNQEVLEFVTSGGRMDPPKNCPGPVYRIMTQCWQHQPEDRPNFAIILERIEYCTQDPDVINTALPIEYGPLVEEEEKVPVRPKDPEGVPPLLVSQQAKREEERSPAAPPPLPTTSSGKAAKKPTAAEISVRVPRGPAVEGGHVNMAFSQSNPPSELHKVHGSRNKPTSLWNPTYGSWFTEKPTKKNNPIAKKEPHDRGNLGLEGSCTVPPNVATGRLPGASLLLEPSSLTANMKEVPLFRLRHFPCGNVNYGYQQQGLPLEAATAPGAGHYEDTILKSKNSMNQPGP
Method: Materials: Recombinant Human Anaplastic Lymphoma Kinase was purchased from Invitrogen, Carlsbad, Calif. Peptide substrate (Biotin-[…]-amide) was custom synthesized at EZBiolab, Westfield, Ind. Streptavidin conjugated SureLight-Allophycocyania and LANCE Eu-W1024 labeled anti-phosphotyrosine antibody were from Perkin-Elmer, Boston, Mass. Microplates were from Corning Inc., Acton, Mass. All other reagents were from Sigma, St. Louis, Mo.
HTRF kinase assay: 40 μL reactions were run in black 384 well polystyrene plates in assay buffer (50 mM Tris, pH 7.8, 100 mM NaCI, 0.1 mg/mL BSA, 5 mM DTT), containing 0.5 μM Biotinylated peptide substrate, 10 mM MgCl2, 90 μM ATP, and 0.25 nM enzyme for 2 hours at 25° C. Reactions were stopped by addition of 20 μL assay buffer supplemented with an additional 50 mM NaCl, 0.4 mg/mL BSA, 45 mM EDTA, 4.5 nM LANCE Eu-W1024 labeled anti-phosphotyrosine antibody and 200 nM streptavidin conjugated SureLight-allophycocyanin. Plates were read in Fusion α-FP instrument (Perkin-Elmer). The concentrations needed to reach 50% inhibition, the IC50 value, were determined by fitting the assay signal to the following equation using Graphpad Prizm. Signal=Bottom+(Top−Bottom)/(1+10^((Log(IC50)−Log [I])*Hill Slope) Bottom and Top refer to the post and pre-transition baselines, respectively.

[5] = 30 μM ATP, 500 nM peptide, room temperature 1 hr

SMILES | IC50 [2, 5] | IC50 [1] | IC50 [2] | IC50 [3] | IC50 (TYK2) | IC50 [4]
Clc1cnc2nc1NCc1cccc(c1)OCc1cccc(c1)N2 [Example 1, 6-Chloro-15-oxa-2,4,8,23-tetraazatetracyclo[15.3.1.1(3,7).1(10,14)]tricosa-1(21),3(23),4,6,10(22),11,13,17,19-nonaene trifluoroacetate] |  | 51 nM | 49 nM | 17 nM | 400 nM | > 1000 nM
Clc1cnc2nc1NCc1cccc(c1)OCCc1cccc(c1)N2 [Example 2, 6-Chloro-15-oxa-2,4,8,24-tetraazatetracyclo[16.3.1.1(3,7).1(10,14)]tetracosa-1(22),3(24),4,6,10(23),11,13,18,20-nonaene trifluoroacetate] | 10 nM | 13 nM |  | 9.2 nM | 35 nM | 1530 nM
O=S1(=O)Nc2cccc(c2)CNc2nc(ncc2Cl)Nc2cccc1c2 [Example 3, 6-Chloro-16-thia-2,4,8,15,23-pentaazatetracyclo[15.3.1.1(3,7).1(10,14)]tricosa-1(21),3(23),4,6,10(22),11,13,17,19-nonaene 16,16-dioxide trifluoroacetate] |  | 300 nM |  | 325 nM | 830 nM | > 10000 nM
O=C1Nc2cccc(c2)CNc2nc(ncc2Cl)Nc2cccc1c2 [Example 4, 6-Chloro-2,4,8,15,23-pentaazatetracyclo[15.3.1.1(3,7).1(10,14)]tricosa-1(21),3(23),4,6,10(22),11,13,17,19-nonaen-16-one trifluoroacetate] | 104 nM | 96 nM |  | 21 nM | > 1000 nM | > 10000 nM
Clc1cnc2nc1NCc1cccc(c1)OCCCc1cccc(c1)N2 [Example 5, 6-Chloro-15-oxa-2,4,8,25-tetraazatetracyclo[17.3.1.1(3,7).1(10,14)]pentacosa-1(23),3(25),4,6,10(24),11,13,19,21-nonaene trifluoroacetate] |  | 4.2 nM | 1.9 nM | 2.4 nM | 25 nM | 706 nM
C[C@H]1Nc2nc(ncc2Cl)Nc2cccc(c2)COc2cccc1c2 [Example 6, (9R)-6-Chloro-9-methyl-15-oxa-2,4,8,23-tetraazatetracyclo[15.3.1.1(3,7).1(10,14)]tricosa-1(21),3(23),4,6,10(22),11,13,17,19-nonaene trifluoroacetate] | 350 nM | 346 nM |  | 140 nM | > 1000 nM | > 10000 nM
Clc1cnc2nc1NCc1cccc(c1)OCCOc1cccc(c1)N2 [Example 7, 6-Chloro-15,18-dioxa-2,4,8,25-tetraazatetracyclo[17.3.1.1(3,7).1(10,14)]pentacosa-1(23),3(25),4,6,10(24),11,13,19,21-nonaene trifluoroacetate] | 8.3 nM | 16 nM |  | 6.4 nM | 43 nM | 2050 nM
Clc1cnc2nc1NCCc1cccc(c1)OCc1cccc(c1)N2 [Example 8, 19-Chloro-9-oxa-2,17,21,22-tetraazatetracyclo[16.3.1.1(3,7).1(10,14)]tetracosa-1(22),3(24),4,6,10(23),11,13,18,20-nonaene] |  | 600 nM |  | 300 nM | 438 nM | > 10000 nM
C[C@@H]1Nc2nc(ncc2Cl)Nc2cccc(c2)COc2cccc1c2 [Example 11, (9S)-6-Chloro-9-methyl-15-oxa-2,4,8,23-tetraazatetracyclo[15.3.1.1(3,7).1(10,14)]tricosa-1(21),3(23),4,6,10(22),11,13,17,19-nonaene trifluoroacetate] | > 1000 nM | > 1000 nM |  | > 1000 nM | > 1000 nM | > 10000 nM
Clc1cnc2nc1NCCc1cccc(c1)OCCCc1cccc(c1)N2 [Example 12, 6-Chloro-16-oxa-2,4,8,26-tetraazatetracyclo[18.3.1.1(3,7).1(11,15)]hexacosa-1(24),3(26),4,6,11(25),12,14,20,22-nonaene] |  | 300 nM |  | 315 nM | 400 nM | > 10000 nM
Clc1cnc2nc1NCc1cc(ccc1Br)OCCCc1cccc(c1)N2 [Example 14, 11-Bromo-6-chloro-15-oxa-2,4,8,25-tetraazatetracyclo[17.3.1.1(3,7).1(10,14)]pentacosa-1(23),3(25),4,6,10(24),11,13,19,21-nonaene] | 91 nM | 100 nM |  | 57 nM | 300 nM | 8200 nM

Now from value to compound, other results behind:

IC50 [2, 5] | SMILES | IC50 [1] | IC50 [2] | IC50 [3] | IC50 (TYK2) | IC50 [4]
23 nM | Clc1cnc2nc1NCCc1cccc(c1)OCCc1cccc(c1)N2 [Example 9, 6-Chloro-16-oxa-2,4,8,25-tetraazatetracyclo[17.3.1.1(3,7).1(11,15)]pentacosa-1(23),3(25),4,6,11(24),12,14,19,21-nonaene] | 28 nM |  | 55 nM | 53 nM | 1230 nM
117 nM | Clc1cnc2nc1NCCCc1cccc(c1)OCc1cccc(c1)N2 [Example 10, 20-Chloro-9-oxa-2,18,22,23-tetraazatetracyclo[17.3.1.1(3,7).1(10,14)]pentacosa-1(23),3(25),4,6,10(24),11,13,19,21-nonaene] | 122 nM |  | 180 nM | 237 nM | > 1000 nM
25 nM | Clc1cnc2nc1NCCCc1cccc(c1)OCCc1cccc(c1)N2 [Example 13, 21-Chloro-10-oxa-2,19,23,24-tetraazatetracyclo[18.3.1.1(3,7).1(11,15)]hexacosa-1(24),3(26),4,6,11(25),12,14,20,22-nonaene] | 32 nM |  | 62 nM | 106 nM | > 10000 nM
41 nM | Clc1cnc2nc1NCc1cc(ccc1-c1ccccc1)OCCCc1cccc(c1)N2 [Example 15, 6-Chloro-11-phenyl-15-oxa-2,4,8,25-tetraazatetracyclo[17.3.1.1(3,7).1(10,14)]pentacosa-1(23),3(25),4,6,10(24),11,13,19,21-nonaene] | 81 nM |  | 31 nM | 400 nM | > 1000 nM
5 nM | Clc1cnc2nc1NCc1cc(Br)cc(c1)OCCCc1cccc(c1)N2 [Example 16, 12-Bromo-6-chloro-15-oxa-2,4,8,25-tetraazatetracyclo[17.3.1.1(3,7).1(10,14)]pentacosa-1(23),3(25),4,6,10(24),11,13,19,21-nonaene] |  |  |  | 149 nM | 280 nM
